Series [1] addresses T1, KOR (Homo sapiens, UniProt P41145).
T1 construct: expressed in transfected cells; host or cells: CHO (Chinese hamster ovary) cell line, membrane preparation
As to the kind of experiment: Competitive radioligand binding, [3H]diprenorphine, OR-expressed CHO membranes (Examples 5 and 6).

Series [2] deals with T1, KOR. Kind of series: KOR [35S]GTPγS binding assay (Example 5). It is filed as biochemical. The following applies: for Emax: read-out: KOR [35S]GTPγS Binding % Emax of U50,488. The protocol:
(§1) The KOR full agonist 2-(3,4-dichlorophenyl)-N-methyl-N-[(1R,2R)-2-pyrrolidin-1-ylcyclohexyl]acetamide 17 (U50,488)41 and DOR full agonist 4-[(R)-[(2S,5R)-4-allyl-2,5-dimethylpiperazin-1-yl](3-methoxyphenyl)methyl]-N,N-diethylbenzamide 18 (SNC80)42 were included in the assays as reference compounds for a maximal effect at the KOR and the DOR, respectively.
(§2) The radioligand binding assay and the [^35S]GTPγS binding assay were conducted using monoclonal OR-expressed Chinese hamster ovarian (CHO) cell lines as described previously.^22,29,36,37 Briefly, for the competition binding assay, [^3H]NLX, [^3H]DPN, and [^3H]NTI were used to label the MOR, the KOR, and the DOR, respectively. Aliquots of a membrane protein (30 μg) were incubated with the corresponding radioligand in the presence of different concentrations of the ligand under investigation in TME buffer (50 mM Tris, 3 mM MgCl2, 0.2 mM EGTA, pH 7.7) at 30° C. for 1.5 h. The bound radioactive ligand was separated from the free radioligand by filtration using the Brandel harvester (Biomedical Research & Development Laboratories, MD). […] The potency of the drugs in displacing the specific binding of the radioligand was determined by linear regression analysis of Hill plots. […] The [^35S]GTPγS functional assays were conducted in the same cell membranes used for the receptor binding assays. Membrane proteins (10 μg) were incubated with varying concentrations of compounds, GDP (10 μM) and 0.1 nM [^35S]GTPγS in assay buffer (50 mM Tris, 3 mM MgCl2, 100 mM NaCl, 0.2 mM EGTA, pH 7.7) for 1.5 h at 30° C. Nonspecific binding was determined with 20 μM unlabeled GTPγS.
A general note: Binding of GTPγS marks nucleotide exchange on a G protein.

The target in series [3] is T2, MOR (Mus musculus, UniProt P42866). Kind of series: biochemical. The following applies: read-out: MOR [35S]GTPγS Binding % Emax of DAMGO.
Series [4] addresses DOR (UniProt P41143). It is filed as binding. Also noted: Ki δ; four experiments; other: three experiments; other: SNC80 5 μM; Ki δ.
Series [5] addresses DOR (UniProt P41143). Kind of series: DOR [35S]GTPγS binding assay (Example 5). It counts as biochemical. Also noted: Ki δ; four experiments; other: three experiments; other: SNC80 5 μM; Ki δ. The protocol:
as §1, §2

The subject of series [6] is morphine antinociceptive effect in mice. As to the kind of experiment: Warm-water tail immersion assay, antagonism of morphine antinociception (Example 5). It counts as in vivo, mouse (Swiss-Webster). Particulars: antagonizing morphine 10 mg/kg; s.c.
Series [7] relates to chronic morphine-exposed mice. Kind of series: Opioid withdrawal assays in morphine-pelleted mice. The following applies: naltrexone 1 mg/kg, counted over 20 minutes.
In series [8] the test system is morphine antinociception in mice. As to the kind of experiment: Warm-water tail immersion test, blockade of morphine antinociception (Example 2). It counts as in vivo, mouse (Swiss Webster). Particulars: s.c., 5 min before morphine 10 mg/kg s.c.; 56 °C.
The test system of series [9] is morphine antinociceptive effect in mice. The following applies: antagonizing morphine 10 mg/kg; s.c.; cited from earlier work.
Series [10] deals with T2, MOR. As to the kind of experiment: [35S]GTPγS functional assay (Example 1). Also noted: expressed in transfected cells; host or cells: CHO (Chinese hamster ovary) cell line, membrane preparation. It counts as biochemical.
The target in series [11] is T2, MOR. Particulars: [35S]GTPγS assays.
For series [12], the target named is T2, MOR. As to the kind of experiment: Competitive radioligand binding, [3H]naloxone, OR-expressed CHO membranes (Examples 5 and 6). Also noted: expressed in transfected cells; host or cells: CHO (Chinese hamster ovary) cell line, membrane preparation. Particulars: Table 8; Ki ratio.
The target of series [13] is T2, MOR. As to the kind of experiment: 35S-GTP[γS]-binding functional assay in MOR expressing CHO cells (Example 2). It counts as biochemical. Also noted: expressed in transfected cells; host or cells: CHO (Chinese hamster ovary) cell line, membrane preparation. The protocol: Furthermore, these systems express the receptor at high density to provide optimal signal-to-noise ratios in the radioligand and ^35S-GTP[γS] binding assays.
Aliquots of a membrane preparation were incubated with the radioligands in the presence of different concentrations of the drug under investigation at 30° C. for 1 h. […] The potency of the drugs in displacing the specific binding of the radioligand was determined from data using linear regression analysis of Hill plots. The IC50 values will then be determined and corrected to K1 values using the Cheng-Prusoff equation. Functional assays, including ^35S-GTP[γS]-binding assay were conducted in the same cell membranes used for the receptor binding assays.

Series [14] deals with mu, delta and kappa opioid receptors. Particulars: cited from earlier work.
Another series has as its system patients with OIC. Particulars: cited from earlier work.
Where [15] appears, read: read-out: Ki δ; Table 8 (NAQ analogues); four experiments.
Where [16] appears, read: read-out: DOR [35S]GTPγS Binding EC50; three experiments.

Values joined by “and” are separate entries in the source; they are usually repeats but may differ in a detail not shown here. Equal values may be shown once. Read-outs that look alike come from different tables or passages of the source.

Turning to `COc1c(C(=O)N[C@H]2CC[C@@]3(O)[C@H]4Cc5ccc(O)c6c5[C@@]3(CCN4CC3CC3)[C@H]2O6)nc(Cl)c2ccccc12` [Compound 4, 17-Cyclopropylmethyl-3,14β-dihydroxy-4,5α-epoxy-6α-(1-chloro-4-methoxyisoquinoline-3-carboxamido)morphinan], the inhibition constant (Ki) on KOR [1] is 22.2 ± 2.1 nM; on DOR [4] (setting [15]) it was 33.9 ± 0.5 nM. The figures for the EC50 at KOR [2] and at DOR [5] (setting [16]) were 26.4 ± 3.9 nM and 32.6 ± 5.1 nM, respectively. Moreover, the Emax on KOR [2] was found to be 7.1 ± 0.5%; on MOR [3], 51 ± 0.4%. Besides, at DOR [5] (SNC80 5 μM), the “DOR [35S]GTPγS Binding % Emax of SNC80” value worked out at 54.8 ± 0.1%.
On to `O=C1CC[C@@]2(O)[C@H]3Cc4ccc(O)c5c4[C@@]2(CCN3CC2CC2)[C@H]1O5` [Naltrexone], for which, in series [6], the AD50 values is reported as 0.006 (0.003-0.014) mg/kg (95% CL). In series [7], this molecule returned an escape jumps of 30.0±12.1 and a wet-dog shakes of 14.8±2.2.
Take “17-Cyclopropylmethyl-3,14β-dihydroxy-4,5α-epoxy-6α-[(3′-isoquinolyl)acetamido]morphinan [Compound 9]”: the “AD50 value for blockade of morphine antinociception” value in series [8] was 0.456 (0.277 to 0.789) mg/kg (95% C.L.). Besides, the “AD50 values (data taken from Li, et al.)” value in series [9] is 0.45 (0.27-0.78) mg/kg (95% CL). Further, the inhibitory constant (Ki) on DOR [4] (Table 8 (NAQ analogues); four experiments; read-out: Ki δ) and on DOR [4] (Table 12 (Example 6); read-out: Ki δ) was 162 ± 15 nM in each case. Moreover, the “DOR [35S]GTPγS Binding % Emax of SNC80” value at DOR [5] (SNC80 5 μM) is 53.5 ± 5.4%. Also, on DOR [5] (three experiments; read-out: DOR [35S]GTPγS Binding EC50), the EC50 is 98.6 ± 23.7 nM.
In the case of `C[C@@H](O)[C@H](NC(=O)[C@H]1NC(=O)[C@H]([C@@H](C)O)NC(=O)[C@H](CCCNC(=N)N)NC(=O)[C@@H](Cc2c[nH]c3ccccc23)NC(=O)[C@H](Cc2ccc(O)cc2)NC(=O)[C@@H](NC(=O)[C@H](N)Cc2ccccc2)CSSC1(C)C)C(N)=O` [CTAP, D-Phe-Cys-Tyr-D-Trp-Arg-Thr-Pen-Thr-NH2], the “Percent Max of DAMGO” value at MOR [10] (Emax of compound vs Emax of DAMGO (normalized to 100%)) was found to be 0.00%.
With `O=C(N[C@H]1CC[C@@]2(O)[C@H]3Cc4ccc(O)c5c4[C@@]2(CCN3CC2CC2)[C@H]1O5)c1cc2cc([N+](=O)[O-])ccc2cn1` [Compound 11, 17-Cyclopropylmethyl-3,14β-dihydroxy-4,5α-epoxy-6α-(6-nitroisoquinoline-3-carboxamido)morphinan], the inhibition constant Ki on KOR [1] stood at 27.9 ± 2 nM; at DOR [4] (setting [15]), 94.7 ± 1.1 nM. For the same molecule, the values for the EC50 at KOR [2] and on DOR [5] (setting [16]) were 62.6 ± 10.4 nM and 108.1 ± 0.8 nM, respectively. Besides, the values for the Emax at KOR [2] and at MOR [3] were 21.1 ± 0.4% and 12.5 ± 1.4%, respectively. Besides, in series [6], the AD50 values is 0.92 (0.51-1.67) mg/kg (95% CL). The “Functional Selectivity δ/μ” value at MOR [11] is listed as 3.4. Moreover, the “Functional Selectivity κ/μ” value at MOR [11] is listed as 2.0. Also, the “DOR [35S]GTPγS Binding % Emax of SNC80” value on DOR [5] (SNC80 5 μM) was found to be 67.7 ± 2.0%. Besides, the “Selectivity δ/μ” value at MOR [12] came out at 16. The “Selectivity κ/μ” value at MOR [12] worked out at 4.9.
In turn, `C[C@@H](NC(=O)[C@@H](N)Cc1ccc(O)cc1)C(=O)NCC(=O)N(C)[C@@H](Cc1ccccc1)C(=O)NCCO` [DAMGO, reference compound] registered an Emax on MOR [10] (DAMGO reference) of 366±23 % stimulation over basal. The “Emax (% Stim)” value at MOR [13] (n=3) is given as 366.5 ± 23.0 % Stim. Moreover, the “Percent Max of DAMGO” value at MOR [13] (normalized to full agonist DAMGO (3 μM)) is reported as 100.0 ± 6.2%.
Take `C[N@+]1(CC2CC2)CC[C@]23c4c5ccc(O)c4O[C@H]2C(=O)CC[C@@]3(O)[C@H]1C5` [MNTX, methylnaltrexone]: in [14], the “Ki value ratio delta/mu” value is listed as “≈ 24” and the “Ki value ratio kappa/mu” value was 10. For the same molecule, in the series on patients with OIC (human, in vivo), the “efficiency to induce SBM” value is on record as at most 62%. For the same molecule, the “patients with laxation within 4 hours after the first dose” value in the series on patients with OIC (two major clinical trials, subcutaneous) was 48% and 62%.
In the case of `COc1cccc2c1[C@]13CCN(CC4CC4)[C@H](C2)[C@]1(OC)CCC(=O)C3` [cyprodime], in [14], the “Ki value ratio delta/mu” value is listed as “≈ 40” and the “Ki value ratio kappa/mu” value is reported as “≈ 45”.

In general, Ki refers to the equilibrium dissociation constant of an inhibitor or competing ligand from its target. Usually EC50 stands for the concentration at which the effect is half-maximal.

The record behind these values is patent US8980908B2, “Non-peptidyl, potent, and selective mu opioid receptor antagonists and their use in treating opioid addiction and opioid induced constipation” (Virginia Commonwealth University, priority 2009, dated 2015).
